Patent publication US6867207B2, “IL-5 inhibiting 6-azauracil derivatives” (Janssen Pharmaceutica N.V., priority 1997, dated 2005)
Marks after values point to notes of the source that are not given here.

These molecules were tested on IL-5 production (assay: In vitro inhibition of IL-5 production in human blood (phytohemagglutinin-stimulated whole blood, ELISA)). Settings: test dose 1×10^−5 M (values marked *), 48 hours.
Format: cell-based
Procedure, shortened: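 Heparinised blood from healthy male donors, diluted threefold in RPMI 1640, preincubated 60 min at 37° C with compound (0.02% DMSO vehicle), then stimulated with 2 μg/mL phytohemagglutinin for 48 h. Supernatant IL-5 measured by ELISA; percentage inhibition at 1×10^−6 M or 1×10^−5 M.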

| Compound | % inh. (percentage inhibition of IL-5 production), marked with * |
| --- | --- |
| O=c1cnn(-c2ccc(C(Sc3nc4ccccc4[nH]3)c3ccc(Cl)cc3)c(Cl)c2)c(=O)[nH]1 (racemic) [Compound 52] | 57* % |

Same assay, conditions: test dose 1×10^−6 M, 48 hours

| Compound | % inh. (percentage inhibition of IL-5 production) |
| --- | --- |
| O=c1cnn(-c2cc(Cl)c(C(c3ccc(Cl)cc3)c3nc(-c4c(Cl)cccc4Cl)cs3)c(Cl)c2)c(=O)[nH]1 (racemic) [Comp 264] | 79% |
| Cc1cc(-n2ncc(=O)[nH]c2=O)cc(C)c1C(c1ccc(Cl)c(Cl)c1)c1nc(-c2ccccc2)c(C)s1 (racemic) [Comp 271] | 88% |
| CN(C)Cc1sc(C(c2ccc(Cl)cc2)c2c(Cl)cc(-n3ncc(=O)[nH]c3=O)cc2Cl)nc1-c1cccc(F)c1 (racemic) [Comp 280] | 96% |
| O=c1cnn(-c2cc(Cl)c(C(Sc3nc4ccccc4s3)c3ccc(Cl)cc3)c(Cl)c2)c(=O)[nH]1 (stereo not shown) [Compound 384] | 95% |
| O=c1cnn(-c2cc(Cl)c(C(c3ccc(Cl)cc3)c3nc(-c4ccccc4)c(CNS(=O)(=O)Cc4ccccc4)s3)c(Cl)c2)c(=O)[nH]1 (racemic) [Comp 336] | 88% |
| O=c1cnn(-c2cc(Cl)c(C(c3ccc(Cl)cc3)c3nc(-c4ccc(Br)cc4)cs3)c(Cl)c2)c(=O)[nH]1 (racemic) [Comp 294] | 85% |
| CCOC(=O)Cc1sc(C(c2ccc(Cl)cc2)c2c(Cl)cc(-n3ncc(=O)[nH]c3=O)cc2Cl)nc1-c1ccccc1 (racemic) [Comp 256] | 94% |
| CC(c1ccc(Cl)c(C(F)(F)F)c1)(c1nc(-c2ccccc2)c(-c2ccccc2)s1)c1c(Cl)cc(-n2ncc(=O)[nH]c2=O)cc1Cl (racemic) [Comp 237] | 82% |
| O=c1cnn(-c2cc(Cl)c(C(c3ccc(Cl)cc3)c3nnc(-c4ccc(Br)cc4)o3)c(Cl)c2)c(=O)[nH]1 (racemic) [Compound 168] | 80% |
| O=c1cnn(-c2cc(Cl)c(C(Sc3ncccn3)c3ccc(Cl)cc3)c(Cl)c2)c(=O)[nH]1 (racemic) [Compound 340] | 88% |
| Cc1sc(C(c2ccc(Cl)cc2)c2c(Cl)cc(-n3ncc(=O)[nH]c3=O)cc2Cl)nc1-c1ccccc1Cl (racemic) [Comp 272] | 87% |
| O=C(CO)Nc1cccc(-c2nnc(C(c3ccc(Cl)cc3)c3c(Cl)cc(-n4ncc(=O)[nH]c4=O)cc3Cl)o2)c1 (racemic) [Compound 215] | 54% |
| COc1cccc(-c2nnc(C(c3ccc(Cl)cc3)c3c(Cl)cc(-n4ncc(=O)[nH]c4=O)cc3Cl)o2)c1 (racemic) [Compound 170] | 62% |
| Cc1nnc(C(c2ccc(Cl)cc2)c2c(Cl)cc(-n3ncc(=O)[nH]c3=O)cc2Cl)o1 (racemic) [Compound 162] | 63% |
| Nc1ccnc(SC(c2ccc(Cl)cc2)c2ccc(-n3ncc(=O)[nH]c3=O)cc2Cl)n1 (racemic) [Compound 343] | 66% |
| CCCc1nnc(C(c2ccc(Cl)cc2)c2c(Cl)cc(-n3ncc(=O)[nH]c3=O)cc2Cl)o1 (racemic) [Compound 164] | 84% |
| CCOC(=O)C(=O)Nc1cccc(-c2nnc(C(c3ccc(Cl)cc3)c3c(Cl)cc(-n4ncc(=O)[nH]c4=O)cc3Cl)o2)c1.O (racemic) [Compound 219] | 8% |
| CCOC(=O)c1cnc(SC(c2ccc(Cl)cc2)c2ccc(-n3ncc(=O)[nH]c3=O)cc2Cl)nc1O (racemic) [Compound 339] | 35% |
| COc1cc(C)nc(NC(c2ccc(Cl)cc2)c2ccc(-n3ncc(=O)[nH]c3=O)cc2Cl)n1 (racemic) [Compound 42] | 57% |
| O=c1cnn(-c2cc(Cl)c(C(c3ccc(Cl)cc3)c3nc(-c4ccccc4)c(C4CCCCC4)s3)c(Cl)c2)c(=O)[nH]1 (racemic) [Comp 284] | 91% |
| O=c1cnn(-c2ccc(C(Sc3ccc(C(F)(F)F)cn3)c3ccc(Cl)cc3)c(Cl)c2)c(=O)[nH]1 (stereo not shown) [Compound 88] | 26% |
| O=c1cnn(-c2cc(Cl)c(C(SCc3cnccn3)c3ccc(Cl)cc3)c(Cl)c2)c(=O)[nH]1 (racemic) [Compound 407] | 71% |

| Compound | % inh. (percentage inhibition of IL-5 production) |
| --- | --- |
| O=c1cnn(-c2cc(Cl)c(C(c3ccc(Cl)cc3)c3nnc(-c4ccc(Cl)cc4)o3)c(Cl)c2)c(=O)[nH]1 (racemic) [Compound 167] | 82% |
| O=c1cnn(-c2ccc(C(c3ccc(Cl)cc3)c3sc(-c4ccccc4)nc3-c3ccccc3)c(Cl)c2)c(=O)[nH]1 (racemic) [Compound 140] | 45% |
| COC(C)c1sc(C(c2ccc(Cl)cc2)c2c(Cl)cc(-n3ncc(=O)[nH]c3=O)cc2Cl)nc1-c1ccccc1 (mixture of isomers) [Comp 315] | 93% |
| O=C(c1sc(C(c2ccc(Cl)cc2)c2c(Cl)cc(-n3ncc(=O)[nH]c3=O)cc2Cl)nc1-c1ccccc1)N1CCOCC1 (racemic) [Comp 306] | 92% |
| CN(C)CCNC(=O)Cc1sc(C(c2ccc(Cl)cc2)c2c(Cl)cc(-n3ncc(=O)[nH]c3=O)cc2Cl)nc1-c1ccccc1 (racemic) [Comp 317] | 67% |
| O=c1cnn(-c2cc(Cl)c(C(c3ccc(Cl)cc3)c3nnc(-c4cccc(Cl)c4)o3)c(Cl)c2)c(=O)[nH]1 (racemic) [Compound 157] | 85% |
| O=c1cnn(-c2ccc(C(Sc3nnc(C(F)(F)F)[nH]3)c3ccc(Cl)cc3)c(Cl)c2)c(=O)[nH]1 (stereo not shown) [Compound 89] | 19% |
| O=c1cnn(-c2cc(Cl)c(C(c3ccc(Cl)cc3)c3nnc(-c4ccccc4)o3)c(Cl)c2)c(=O)[nH]1 (stereo not shown) [Compound 189, (A)-2-[3,5-dichloro-4-[(4-chlorophenyl)(5-phenyl-1,3,4-oxadizol-2-yl)methyl]phenyl]-1,2,4-triazine-3,5(2H,4H)-dione] | 82% |
| O=c1cnn(-c2cc(Cl)c(C(Sc3ccccn3)c3ccc(Cl)cc3)c(Cl)c2)c(=O)[nH]1 (stereo not shown) [Compound 377] | 87% |
| Cn1c(C(c2ccc(Cl)cc2)c2c(Cl)cc(-n3ncc(=O)[nH]c3=O)cc2Cl)cnc1-c1ccccc1 (stereo not shown) [Comp 430] | 89% |
| Nc1cc(O)nc(SC(c2ccc(Cl)cc2)c2ccc(-n3ncc(=O)[nH]c3=O)cc2Cl)n1 (stereo not shown) [Compound 87] | 9% |
| Cc1nc(-c2ccccc2Cl)sc1C(c1ccc(Cl)cc1)c1ccc(-n2ncc(=O)[nH]c2=O)cc1Cl (racemic) [Compound 154] | 42% |
| CC(c1ccc(Cl)c(F)c1)(c1nc(-c2ccccc2)cs1)c1c(Cl)cc(-n2ncc(=O)[nH]c2=O)cc1Cl (racemic) [Comp 288] | 90% |
| CNCc1sc(C(c2ccc(Cl)cc2)c2c(Cl)cc(-n3ncc(=O)[nH]c3=O)cc2Cl)nc1-c1ccccc1.Cl.O.O.O (racemic) [Comp 296] | 92% |
| O=c1cnn(-c2ccc(C(Sc3nccc(-c4cccs4)n3)c3ccc(Cl)cc3)c(Cl)c2)c(=O)[nH]1 (stereo not shown) [Compound 84] | 73% |
| O=c1cnn(-c2ccc(C(c3ccc(Cl)cc3)c3sc(-c4ccccc4Cl)nc3-c3ccccc3Cl)c(Cl)c2)c(=O)[nH]1 (racemic) [Compound 151] | 17% |
| [N-]=[N+]=Nc1ccc(-c2nnc(C(c3ccc(Cl)cc3)c3c(Cl)cc(-n4ncc(=O)[nH]c4=O)cc3Cl)o2)cc1 (racemic) [Compound 185] | 81% |
| O=c1cnn(-c2ccc(C(Sc3nc4ccccc4o3)c3ccc(Cl)cc3)c(Cl)c2)c(=O)[nH]1 (racemic) [Compound 71] | 84% |
| O=c1cnn(-c2cc(Cl)c(C(c3ccc(Cl)cc3)c3nc(-c4cccc(Br)c4)cs3)c(Cl)c2)c(=O)[nH]1 (racemic) [Comp 250] | 84% |
| Cc1cc(NC(c2ccc(Cl)cc2)c2ccc(-n3ncc(=O)[nH]c3=O)cc2Cl)no1 (racemic) [Compound 40] | 31% |
| Cc1ccc(-c2nnc(C(c3ccc(Cl)cc3)c3c(Cl)cc(-n4ncc(=O)[nH]c4=O)cc3Cl)o2)cc1 (racemic) [Compound 177] | 69% |
| O=c1cnn(-c2ccc(C(O)(c3ccc(Cl)cc3)c3cccnc3)c(Cl)c2)c(=O)[nH]1 (stereo not shown) [Comp 117] | 34% |

Same assay, conditions: test dose 1×10^−6 M, 48 hours, read-out: % inh. (percentage inhibition of IL-5 production)

| Compound | inhibition at 1 µM |
| --- | --- |
| O=c1cnn(-c2ccc(C(Nc3nc4cccnc4s3)c3ccc(Cl)cc3)c(Cl)c2)c(=O)[nH]1 (racemic) [Compound 410, (±)-2-[3-chloro-4-[(4-chlorophenyl)[(thiazolo[5,4-b]pyridin-2-yl)amino]methyl]phenyl]-1,2,4-triazine-3,5(2H,4H)-dione] | 15% |
| CCNC(CSC(c1ccc(Cl)cc1)c1ccc(-n2ncc(=O)[nH]c2=O)cc1Cl)C(=O)O (racemic) [Compound 95, (±)-ethyl α-[[[(4-chlorophenyl)[2-chloro-4-(4,5-dihydro-3,5-dioxo-1,2,4-triazin-2(3H)-yl)phenyl]methyl]thio]methyl]glycine] | 17% |
| O=c1cnn(-c2ccc(C(Nc3ncccn3)c3ccc(Cl)cc3)c(Cl)c2)c(=O)[nH]1 (racemic) [Compound 49, (±)-2-[3-chloro-4-[(4-chlorophenyl)(2-pyrimidinylamino)methyl]phenyl]-1,2,4-triazine-3,5(2H,4H)-dione] | 61% |
| O=c1cnn(-c2ccc(C(c3ccc(Cl)cc3)c3cccnc3)c(Cl)c2)c(=O)[nH]1 (racemic) [Compound 124, (±)-2-[3-chloro-4-[(4-chlorophenyl)-3-pyridinylmethyl]phenyl]-1,2,4-triazine-3,5(2H,4H)-dione] | 42% |
